Results taken from patent US20240101570A1 (AMGEN INC., priority 2020, published 2024).

What was measured:
[1] = test system: HCT116 WT cells; experiment: HCT116 WT cell proliferation / viability (CellTiter-Glo, 6 days); format: cell-based; settings: Homo sapiens, HCT-116, 144 h, HCT116 WT cells, 6 days, CellTiter-Glo; read-out: HCT-116 WT IC50
Experimental: (§1) HCT116 MTAP null and WT cells were seeded in 96-well tissue culture plates in RPMI 1640 media+10% fetal bovine serum. Plates were incubated overnight at 37° C. and 5% CO2. Cells were then treated with an 8- or 9-point serial dilution of compound, using a top concentration of 1, or 10 μM, 1:3 serial dilution steps and, a DMSO-only control. Cells were incubated in the presence of drug for 6 days. Effects on cell viability were measured with the CellTiter-Glo® Luminescent Cell Viability Assay (Promega) per manufacturer's recommendation. Assay plates were read on an EnVision™ Multilabel Reader using the Ultra-Sensitive luminescence module. IC50 values were calculated with GraphPad Prism v 5.01 using symmetrical sigmoidal dose-response least squares fit with Hill slope fixed to −1 and top constrain to 100% or GeneData Screener using a 4-parameter logistic model to fit dose response curves.
(§2) Alternatively, compounds could be assayed with a 384 well plate format:
(§3) Compounds were pre-spotted into 384 well plates with a 22-point serial dilution of compound, using a top concentration of 10 or 50 μM, 1:2 serial dilution steps and, a DMSO-only control. HCT116 MTAP null and WT cells were then seeded as above and after 6 days effects on cell viability were measured with the CellTiter-Glo® Luminescent Cell Viability Assay (Promega). Assay plates were read as above and IC50 values were calculated with GeneData Screener using a 4-parameter logistic model to fit dose response curves. The reported IC50 represents the value where the curve transits 50% of control.

[2] = test system: HCT116 MTAP null cells; experiment: HCT116 MTAP null cell proliferation / viability (CellTiter-Glo, 6 days); format: cell-based; settings: for IC50: HCT116-MTAP null, 144 h, HCT116 MTAP null cells, 6 days, CellTiter-Glo, read-out: HCT-116 MTAP null IC50
Experimental: as §1, §2, §3

| SMILES | IC50 [1] [nM] | IC50 [2] [nM] | potency of enantiomer relative to the other enantiomer, measured by IC50 in HCT116 MTAP null cell viability assay ([2]; HCT116 MTAP null, comparison of the two SFC-separated enantiomers) |
| --- | --- | --- | --- |
| COCC(C1CC1)N(Cc1ccc(Br)nn1)C(=O)c1ccc2nc(N)c3sccc3c2c1 (racemic) [Example 639, 4-amino-N-((6-bromo-3-pyridazinyl)methyl)-N-((1R)-1-cyclopropyl-2-methoxyethyl)thieno[2,3-c]quinoline-8-carboxamide and 4-amino-N-((6-bromo-3-pyridazinyl)methyl)-N-((1S)-1-cyclopropyl-2-methoxyethyl)thieno[2,3-c]quinoline-8-carboxamide] | 3150 | 238 |  |
| CC(c1ncccn1)N(Cc1ccc(C(F)(F)F)cn1)C(=O)c1ccc2nc(N)c3c(c2c1)COC3 (racemic) [Example 640, 4-amino-N-((1R)-1-(2-pyrimidinyl)ethyl)-N-((5-(trifluoromethyl)-2-pyridinyl)methyl)-1,3-dihydrofuro[3,4-c]quinoline-8-carboxamide and 4-amino-N-((1S)-1-(2-pyrimidinyl)ethyl)-N-((5-(trifluoromethyl)-2-pyridinyl)methyl)-1,3-dihydrofuro[3,4-c]quinoline-8-carboxamide] | 110 | 13 |  |
| CC(CF)N(Cc1ccc(C#N)cn1)C(=O)c1cc2c3c(c(N)nc2cn1)COC3 (racemic) [Example 687, 4-amino-N-((5-cyano-2-pyridinyl)methyl)-N-((2R)-1-fluoro-2-propanyl)-1,3-dihydrofuro[3,4-c][1,7]naphthyridine-8-carboxamide and 4-amino-N-((5-cyano-2-pyridinyl)methyl)-N-((2S)-1-fluoro-2-propanyl)-1,3-dihydrofuro[3,4-c][1,7]naphthyridine-8-carboxamide] | > 10000 | > 10000 |  |
| CC(c1ccc(C(F)(F)F)cn1)N(C)C(=O)c1ccc2nc(N)c3c(c2c1)COC3 (racemic) [Example 697, 4-amino-N-methyl-N-((1R)-1-(5-(trifluoromethyl)-2-pyridinyl)ethyl)-1,3-dihydrofuro[3,4-c]quinoline-8-carboxamide and 4-amino-N-methyl-N-((1S)-1-(5-(trifluoromethyl)-2-pyridinyl)ethyl)-1,3-dihydrofuro[3,4-c]quinoline-8-carboxamide] | 4430 | 121 |  |
| CC(c1ccc(C(F)(F)F)cn1)N(C)C(=O)c1cnc2nc(N)c3c(c2c1)COC3 (racemic) [Example 700, 4-amino-N-methyl-N-((1R)-1-(5-(trifluoromethyl)-2-pyridinyl)ethyl)-1,3-dihydrofuro[3,4-c][1,8]naphthyridine-8-carboxamide and 4-amino-N-methyl-N-((1S)-1-(5-(trifluoromethyl)-2-pyridinyl)ethyl)-1,3-dihydrofuro[3,4-c][1,8]naphthyridine-8-carboxamide] | > 10000 | 1100 |  |
| CCN(C(=O)c1cnc2nc(N)c3c(c2c1)COC3)C(C)c1ccc(C(F)(F)F)cn1 (racemic) [Example 705, 4-amino-N-ethyl-N-((1R)-1-(5-(trifluoromethyl)-2-pyridinyl)ethyl)-1,3-dihydrofuro[3,4-c][1,8]naphthyridine-8-carboxamide and 4-amino-N-ethyl-N-((1S)-1-(5-(trifluoromethyl)-2-pyridinyl)ethyl)-1,3-dihydrofuro[3,4-c][1,8]naphthyridine-8-carboxamide] | 28500 | 637 |  |
| CC(c1ccc(C(F)(F)F)cn1)N(C)C(=O)c1cc2c3c(c(N)nc2cn1)COC3 (racemic) [Example 709, 4-amino-N-methyl-N-((1R)-1-(5-(trifluoromethyl)-2-pyridinyl)ethyl)-1,3-dihydrofuro[3,4-c][1,7]naphthyridine-8-carboxamide and 4-amino-N-methyl-N-((1S)-1-(5-(trifluoromethyl)-2-pyridinyl)ethyl)-1,3-dihydrofuro[3,4-c][1,7]naphthyridine-8-carboxamide] | 4250 | 76 |  |
| CC(c1ccc(C(F)(F)F)cn1)N(C)C(=O)c1ccc2nc(N)c3c(cnn3C)c2c1 (racemic) [Example 716, 4-amino-N,3-dimethyl-N-((1R)-1-(5-(trifluoromethyl)-2-pyridinyl)ethyl)-3H-pyrazolo[3,4-c]quinoline-8-carboxamide and 4-amino-N,3-dimethyl-N-((1S)-1-(5-(trifluoromethyl)-2-pyridinyl)ethyl)-3H-pyrazolo[3,4-c]quinoline-8-carboxamide] | 33300 | 917 |  |
| CCN(C(=O)c1cc2c3c(c(N)nc2cc1F)COC3)C(C)c1ccc(C(F)(F)F)cn1 (racemic) [Example 719, 4-amino-N-ethyl-7-fluoro-N-((1R)-1-(5-(trifluoromethyl)-2-pyridinyl)ethyl)-1,3-dihydrofuro[3,4-c]quinoline-8-carboxamide and 4-amino-N-ethyl-7-fluoro-N-((1S)-1-(5-(trifluoromethyl)-2-pyridinyl)ethyl)-1,3-dihydrofuro[3,4-c]quinoline-8-carboxamide] | 21800 | 1030 |  |
| CC(c1ncc(F)cn1)N(CCOC(F)(F)F)C(=O)c1cc2c3c(c(N)nc2cc1F)COC3 (racemic) [Example 725, 4-amino-7-fluoro-N-((1R)-1-(5-fluoro-2-pyrimidinyl)ethyl)-N-(2-(trifluoromethoxy)ethyl)-1,3-dihydrofuro[3,4-c]quinoline-8-carboxamide and 4-amino-7-fluoro-N-((1S)-1-(5-fluoro-2-pyrimidinyl)ethyl)-N-(2-(trifluoromethoxy)ethyl)-1,3-dihydrofuro[3,4-c]quinoline-8-carboxamide] | > 50000 | 854 |  |
| CCN(C(=O)c1ccc2nc(N)c3c(c2c1)COC3)C(C)c1ccc(Cl)nc1 (racemic) [Example 727, 4-amino-N-((1R)-1-(6-chloro-3-pyridinyl)ethyl)-N-ethyl-1,3-dihydrofuro[3,4-c]quinoline-8-carboxamide and 4-amino-N-((1S)-1-(6-chloro-3-pyridinyl)ethyl)-N-ethyl-1,3-dihydrofuro[3,4-c]quinoline-8-carboxamide] | 12300 | 279 |  |
| CCN(C(=O)c1cc2c3c(c(N)nc2cc1Cl)COC3)C(C)c1ccc(Cl)nc1 (racemic) [Example 737, 4-amino-7-chloro-N-((1R)-1-(6-chloro-3-pyridinyl)ethyl)-N-ethyl-1,3-dihydrofuro[3,4-c]quinoline-8-carboxamide and 4-amino-7-chloro-N-((1S)-1-(6-chloro-3-pyridinyl)ethyl)-N-ethyl-1,3-dihydrofuro[3,4-c]quinoline-8-carboxamide] | 2380 | 59 |  |
| CCN(C(=O)c1cc2c3c(c(N)nc2cc1F)COC3)C(C)c1ccc(Cl)nc1 (racemic) [Example 739, 4-amino-N-((1R)-1-(6-chloro-3-pyridinyl)ethyl)-N-ethyl-7-fluoro-1,3-dihydrofuro[3,4-c]quinoline-8-carboxamide and 4-amino-N-((1S)-1-(6-chloro-3-pyridinyl)ethyl)-N-ethyl-7-fluoro-1,3-dihydrofuro[3,4-c]quinoline-8-carboxamide] | 2220 | 71 |  |
| CN(C(=O)c1cc2c3c(c(N)nc2cn1)COC3)C(c1ccc(C(F)(F)F)cn1)C1CC1 (racemic) [Example 764, 4-amino-N-((R)-cyclopropyl(5-(trifluoromethyl)-2-pyridinyl)methyl)-N-methyl-1,3-dihydrofuro[3,4-c][1,7]naphthyridine-8-carboxamide and 4-amino-N-((S)-cyclopropyl(5-(trifluoromethyl)-2-pyridinyl)methyl)-N-methyl-1,3-dihydrofuro[3,4-c][1,7]naphthyridine-8-carboxamide] | > 50000 | 6380 |  |
| CC(c1ccc(F)cn1)N(C)C(=O)c1cc2c3c(c(N)nc2cc1Cl)COC3 (racemic) [Example 772, 4-amino-7-chloro-N-((1R)-1-(5-fluoro-2-pyridinyl)ethyl)-N-methyl-1,3-dihydrofuro[3,4-c]quinoline-8-carboxamide and 4-amino-7-chloro-N-((1S)-1-(5-fluoro-2-pyridinyl)ethyl)-N-methyl-1,3-dihydrofuro[3,4-c]quinoline-8-carboxamide] | 18200 | 374 |  |
| CC1OCc2c1c(N)nc1ccc(C(=O)N(Cc3ccc(C(F)(F)F)cn3)[C@H]3C[C@@H]3C(F)(F)F)cc21 (mixture of isomers) [Example 910, 4-amino-3-methyl-N-((1R,2R)-2-(trifluoromethyl)cyclopropyl)-N-((5-(trifluoromethyl)-2-pyridinyl)methyl)-1,3-dihydrofuro[3,4-c]quinoline-8-carboxamide and 4-amino-3-methyl-N-((1S,2S)-2-(trifluoromethyl)cyclopropyl)-N-((5-(trifluoromethyl)-2-pyridinyl)methyl)-1,3-dihydrofuro[3,4-c]quinoline-8-carboxamide] | 3000 | 22 |  |
| C[C@H](CF)N(Cc1ccc(C#N)cn1)C(=O)c1ccc2nc(N)c3c(c2c1)COC3 (single isomer, unassigned) [Example 577] | > 10000 | 3260 | more potent |
